The values that follow come from PMC8970883, “Simultaneous Determination of Seven Phenolic Acids, Two Flavonoids, and Tussilagone in Rat Plasma after Administration of Farfarae Flos Extract by LC–MS/MS” (Evidence-based Complementary and Alternative Medicine : eCAM, 2022).

The MRT is the average time that molecules of a dose stay in the body. The term Tmax denotes the time from dosing to the highest level. One may read the Cmax as the peak of the concentration-time curve. Usually half-life stands for the time in which the quantity being followed falls by half. Lower therefore signals rapid decline.

Each structure is given as a SMILES string. Like-named read-outs stand apart in the source and are kept apart here.

Data set [1] can be described thus: Stability of QC samples in rat plasma (24 h, freeze-thaw, 4 weeks). Conditions: six replicates; for Freeze-thaw stability, percent remaining: freeze-thaw cycles −20°C to 20°C; for Long stability Remain (%): stored at −80°C for 4 weeks; for 24 h stability Remain (%): 24 hours at 20°C. Format: in vitro ADME. The method, then:
Stock solution of 10 analytical compounds (1.00 mg·mL^−1) and three internal standards (ISs) was dissolved in methanol and placed in the refrigerator before testing. Methanol was used to prepare ferulic acid (IS1), puerarin (IS2), and artemisinin (IS3) solutions to reach a concentration of 1 μg mL^−1, respectively. A specific volume of each analyte stock solution is mixed together to prepare the standard working solution containing 10 analytes with a concentration of 10 times at LLOQ and three levels (high, medium, and low). Quality control (QC) samples for methodological validation were prepared to obtain the final concentration by adding standard working solution (10 μL) into blank plasma samples (100 μL).
Four concentration levels of ICB and ICA were 4, 12, 400, and 12000 ng mL^−1, respectively. Four concentration levels of caffeic acid were 10, 30, 1000, and 30000 ng·mL^−1, respectively.
In the stability test, 24-hour stability (The samples were placed for 24 hours at 20°C and then measured), freeze-thaw cycles (The sample was injected after the temperature changing from −20°C to 20°C), and 4 weeks stability (The sample was determined after stored at −80°C for 4 weeks) of representative QC samples were all tested. All of them were assayed with six replicates.

For data set [2] the following is noted: previous pharmacokinetic study on chlorogenic acid ref 15; cited from earlier work.
Data set [3] is described as follows: Pharmacokinetic study in rats after intragastric administration of Farfarae Flos extract (plasma, LC-MS/MS). Format: in vivo. Conditions: for Cmax / Tmax / half-life / MRT last / MRT inf: male; for Cmax: rat, plasma, po; for MRT last: read-out: MRT(0–24h); for MRT inf: read-out: MRT(0–∞). The source says: A high-performance liquid chromatography instrument was used to separate three types of compounds (Agilent 1200 series, USA). The HPLC instrument is composed of four parts; a G1322A degasser, G1312A Bin Pump, G1367B auto-sampler, and G1316A thermostatic column compartment. Three types of compounds and three internal standards (ISs) were separated on an Eclipse Plus C18 (4.6 × 100 mm, 1.8 μm). The mobile phase was composed of formic acid aqueous solution (A) and formic acid methanol solution (B). The concentration of formic acid in both A and B solution was 0.1% (v/v). The gradient elution was as follows. The proportion of 10% B changes to 40% from 0 min to 3mins. 40% B changes to 90% from 16 to 18 min. B is maintained at 100% from 19 to 28 min. The flow rate, sample injected volume, and column temperature was 0.35 mL·min^−1, 10 μL, and 35°C, respectively.
Quantitative analysis of all samples was performed on Sciex API 3200 with an electrospray ionization (ESI) source. Analyst 1.6.2 workstation for instrument operation, data management, and data analysis were employed to analyze and process data (AB, Sciex). Ten analyzed compounds and three ISs were optimized during multiple reactions monitoring (MRM). […] MRM parameters of CCLA were set at 353.1-191.0. […] MRM parameters of IAB were set as 515.3-353.2 and MRM parameters of IAA were set at 515.2-353.0. MRM parameters of IAC and tussilagone were set as 515.3-352.9, 391.4-217.4, respectively.
Twenty male rats (4 months old, weight 240 ± 20 g) were obtained commercially from Vital River Laboratory Animal Company (Beijing, China). Before the pharmacokinetic experiments, they were free to eat food and drink water for one week for adapting to the environment when the dark light cycle was 12 hours, while the temperature was maintained at 25 ± 5°C. The animal experiments were guided and strictly approved by Tianjin Hospital animal ethics committee. They were fasted for 12 hours and could only drink freely water before intragastric administration of Farfarae Flos extract. Ten rats in each group were employed for eliminating data variation caused by different animal individuals. All rats in groups 1 and group 2 were orally administrated one time at two dosages of Farfarae Flos extract (carboxymethyl cellulose sodium salt (0.5%) was used to suspend the extract to prepare the administration solution 3.90 g·kg^−1 and 7.80 g·kg^−1), respectively. Rats were anesthetized with ether. The heparinized 1.5 mL polythene tube was used to collect bank plasma samples before administering dose of the extract. About 250 μL plasma samples were collected at each collecting points of 5 min, 10 min, 0.25 h, 0.50 h, 0.75 h, 1 h, 2 h, 4 h, 8 h, 12 h, 24 h, and 36 h via fossa orbitalis after dosing. All plasma samples from collecting points need to be centrifuged at 4,000 rpm for ten minutes. The supernatant fluid of centrifuged plasma samples was obtained and immediately stored at −20°C in a refrigerator until they were analyzed.
The maximum concentration (Cmax) and the time to reach the maximum concentration (Tmax) of ten target compounds were directly calculated by the real concentration-time data in the plasma. The data were expressed as mean ± SD.
Ten microliters of ISs solution (contained puerarin, ferulic acid, and artemisinin) and the plasma sample (100 μL) were added into a clean tube, and then acetonitrile (400 μL) was added to precipitate protein. After centrifugation at 14000 rpm for 10 minutes, a mild nitrogen flow was used to evaporate the liquid of the supernatant to dryness. Then, the residue was dissolved in methanol (100 μL). The solution was vortexed for 3 min, mixed for 3 minutes with ultrasound, and centrifuged for 10 min. Finally, the solution (10 μL) was used to detect concentration of ten target compounds in rat plasma.

Setting [4] is: high concentration level (3000-30000 ng·mL^−1).
[5] abbreviates: low concentration level (3-30 ng·mL^−1).
The mark [6] stands for this setting: medium concentration level (100-1000 ng·mL^−1).
The mark [7] stands for this setting: 3.9 g/kg, oral Farfarae Flos extract 3.9 g·kg^−1, mean ± SD.
[8] abbreviates: rat plasma, oral Farfarae Flos extract 3.9 g·kg^−1, mean ± SD.
[9] abbreviates: rat plasma, oral Farfarae Flos extract 7.8 g·kg^−1, mean ± SD.
The mark [10] stands for this setting: 7.8 g/kg, oral Farfarae Flos extract 7.8 g·kg^−1, mean ± SD.

Take `O=C(/C=C/c1ccc(O)c(O)c1)O[C@@H]1C[C@](O)(C(=O)O)C[C@@H](O)[C@H]1O` [CLA, chlorogenic acid]: in data set [1] (setting [4]), the “Freeze-thaw stability, percent remaining” value was 115% and the “Long stability Remain (%)” value was 112%. The “Long stability Remain (%)” value in data set [1] (setting [5]) worked out at 114%. Moreover, the “Freeze-thaw stability, percent remaining” value in data set [1] (setting [6]) came out at 88.7%. Moreover, in data set [2], the MRT is 5.08 ± 0.89 h and the time to peak (Tmax) is given as 0.70 ± 0.19 h. This molecule also registered a Cmax in data set [3] (setting [7]) of 538 ± 489 ng/mL. In addition, in data set [3] (setting [8]), the Tmax was determined as 0.64 ± 0.244 h, the half-life was 2.16 ± 1.46 h, the MRT last came out at 4.4 ± 1.71 h and the MRT inf came to 5.41 ± 2.04 h. In data set [3] (setting [8]), the “AUC(0–24h)” value came out at 1425 ± 1046 ng/mL ∗ h and the “AUC(0–∞)” value turned out to be 1467 ± 1044 ng/mL ∗ h. Moreover, in data set [3] (setting [9]), the Tmax was 0.38 ± 0.14 h, the half-life is 1.28 ± 0.56 h, the MRT last is 4.63 ± 1.36 h and the MRT inf amounted to 5.32 ± 1.55 h. Besides, in data set [3] (setting [9]), the “AUC(0–24h)” value amounted to 3611 ± 1023 ng/mL ∗ h and the “AUC(0–∞)” value worked out at 3692 ± 1052 ng/mL ∗ h.
As to `O=C(/C=C/c1ccc(O)c(O)c1)O[C@@H]1C[C@@](O)(C(=O)O)C[C@@H](O)[C@@H]1O` [NCLA, neochlorogenic acid], in data set [1] (setting [4]), the “Freeze-thaw stability, percent remaining” value came to 87.0% and the “Long stability Remain (%)” value turned out to be 114%. For the same molecule, the “Freeze-thaw stability, percent remaining” value in data set [1] (setting [5]) is 111%. Also, the “Freeze-thaw stability, percent remaining” value in data set [1] (setting [6]) was 82.9%. The same molecule came in with a Cmax in data set [3] (setting [7]) of 74 ± 52 ng/mL. The molecule further yielded a Cmax in data set [3] (setting [10]) of 486 ± 273 ng/mL. Also, in data set [3] (setting [8]), the Tmax came out at 0.69 ± 0.19 h, the half-life is 1.61 ± 1.1 h, the MRT last came out at 4.35 ± 2.74 h and the MRT inf is 7.9 ± 7.34 h. Besides, in data set [3] (setting [8]), the “AUC(0–24h)” value was found to be 210.2 ± 126.4 ng/mL ∗ h and the “AUC(0–∞)” value is listed as 239.3 ± 125.3 ng/mL ∗ h. In data set [3] (setting [9]), the Tmax was determined as 0.36 ± 0.13 h, the half-life is 1.49 ± 0.54 h, the MRT last is 6.33 ± 2.33 h and the MRT inf was determined as 8.61 ± 2.66 h. In data set [3] (setting [9]), the “AUC(0–24h)” value amounted to 965.7 ± 295.9 ng/mL ∗ h and the “AUC(0–∞)” value came out at 1028 ± 3007 ng/mL ∗ h.
In the case of `C[C@@H]1O[C@@H](OC[C@H]2O[C@@H](Oc3c(-c4ccc(O)c(O)c4)oc4cc(O)cc(O)c4c3=O)[C@H](O)[C@@H](O)[C@@H]2O)[C@H](O)[C@H](O)[C@H]1O` [Rutin, rutin], in data set [1] (setting [4]), the “Freeze-thaw stability, percent remaining” value is 116% and the “Long stability Remain (%)” value is 89.6%. Moreover, the “Long stability Remain (%)” value in data set [1] (setting [5]) was 97.0%. Also, in data set [3] (setting [7]), the peak level (Cmax) was 17.9 ± 17.6 ng/mL. Also, in data set [3] (setting [10]), the peak level (Cmax) was 76.7 ± 55.5 ng/mL. Further, in data set [3] (setting [8]), the half-life was 0.61 ± 0.46 h, the MRT last came out at 1.95 ± 1.06 h, the MRT inf was 3.06 ± 1.3 h and the “AUC(0–24h)” value turned out to be 39.49 ± 59.42 ng/mL ∗ h. Moreover, in data set [3] (setting [8]), the “AUC(0–∞)” value was 42.77 ± 60.06 ng/mL ∗ h and the T max was determined as 0.39 ± 0.16 h. For the same molecule, in data set [3] (setting [9]), the Tmax was 0.32 ± 0.12 h, the MRT last turned out to be 2.79 ± 0.24 h, the MRT inf was determined as 6.02 ± 4.7 h and the “AUC(0–24h)” value was 104.04 ± 53.04 ng/mL ∗ h. Also, the “t 1/2” value in data set [3] (setting [9]) was 0.82 ± 0.51 h.
Regarding `C=C1[C@H](OC(=O)/C=C(\C)CC)C[C@@H](C(C)C)[C@@H]2[C@@H]([C@@H](C)OC(C)=O)C(=O)C[C@@H]12` [Tussilagone, tussilagone], in data set [1] (setting [4]), the “24 h stability Remain (%)” value amounted to 95.0%; the “Freeze-thaw stability, percent remaining” value was 91.8%; the “Long stability Remain (%)” value is listed as 109%. Moreover, in data set [1] (setting [5]), the “24 h stability Remain (%)” value stood at 100%; the “Freeze-thaw stability, percent remaining” value is given as 83.9%; the “Long stability Remain (%)” value is listed as 101%. In data set [1] (setting [6]), the “24 h stability Remain (%)” value stood at 92.1%; the “Freeze-thaw stability, percent remaining” value came out at 115%; the “Long stability Remain (%)” value is on record as 107%. In data set [3] (setting [7]), this molecule gave a Cmax of 0.83 ± 0.5 ng/mL. The molecule further returned a Cmax in data set [3] (setting [10]) of 18.1 ± 13 ng/mL. For the same molecule, in data set [3] (setting [8]), the time of peak concentration (Tmax) is 0.44 ± 0.38 h, the half-life is 0.28 ± 0.2 h, the MRT last is 0.87 ± 0.134 h and the MRT inf was found to be 3.12 ± 2.62 h. Besides, in data set [3] (setting [8]), the “AUC(0–24h)” value was 1.06 ± 0.564 ng/mL ∗ h and the “AUC(0–∞)” value is reported as 2.19 ± 1.98 ng/mL ∗ h. In addition, in data set [3] (setting [9]), the Tmax amounted to 0.4 ± 0.33 h, the half-life was 0.82 ± 0.72 h, the MRT last was 2.42 ± 2.1 h and the MRT inf turned out to be 6.98 ± 9.13 h. In data set [3] (setting [9]), the “AUC(0–24h)” value is recorded as 35.48 ± 42.302 ng/mL ∗ h and the “AUC(0–∞)” value was determined as 47.12 ± 49.445 ng/mL ∗ h. Also, the Terminal elimination half-life entry in data set [3] (rat plasma, compared among the three types of compounds, Farfarae Flos extract 3.90 and 7.80 g·kg^−1) is reported as “shortest”.
